The results in this text go back to patent US10501479B2, “Benzenesulfonyl-asymmetric ureas and medical uses thereof” (HELSINN HEALTHCARE SA, priority 2016, dated 2019).

For orientation: IC50 means the concentration that gives 50% inhibition.

The target of data set [1] is T1, recombinant human ghrelin receptor (HEK293/GRLN) (Homo sapiens, UniProt Q92847).
T1 construct: expressed in transfected cells
The data set can be described thus: Ghrelin inverse agonist potency (EC50) with IP-1 (IP-One HTRF) assay. Type of data set: cell-based. The settings on record: IP-1 assay, HEK293/GRLN; read-out: Activity EC50 (ghrelin inverse agonist potency). Summed up: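 IP-1 accumulation was measured by HTRF (IP1-d2/Tb-cryptate, 620/665 nm read after 1 hour at room temperature) following 1 hour of compound treatment at 37° C. Cells were HEK293 stably expressing human ghrelin receptor, plated a day earlier on Matrigel. Inverse agonist potency was reported as EC50.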

Data set [2] deals with T2, GHSR-1a (HEK293/GHSR1a cell line) (Homo sapiens, UniProt Q92847).
T2 construct: expressed in transfected cells; host or cells: HEK293/GHSR1a cell line
The data set is described as follows: Ghrelin agonist potency (EC50) with calcium FLIPR assay. The data set is classed as cell-based. The settings on record: HEK293/GHSR1a, read-out: Activity EC50/EMax: EC50 (ghrelin agonist potency). Summed up:
(§1)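 The cells were plated a day ahead and loaded with a calcium-sensitive dye. Test compound was then added and incubated 15 min, followed by ghrelin. Antagonist potency was calculated from inhibition of the response to 10 nM ghrelin, and agonist potency from the calcium rise caused by compound alone.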

Data set [3] concerns the target T2, GHSR-1a (HEK293/GHSR1a cell line). The data set can be described thus: Ghrelin antagonist potency (IC50) with calcium FLIPR assay, ghrelin 10 nM. The data set is classed as cell-based. The settings on record: HEK293/GHSR1a, ghrelin 10 nM, read-out: Activity IC50 (ghrelin antagonist potency). Summed up:
as §1

Data set [4] in a line: Metabolic stability in human liver microsomes. The data set is classed as in vitro ADME. Summed up: (§2)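 First, microsomes and compound are preincubated 5 min at 37 °C in pH 7.4 phosphate buffer. Next, an NADPH regenerating system starts the reaction. Then aliquots are quenched cold at 10, 30 and 90 min, centrifuged and analysed by LC-MS/MS.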
For orientation: Microsomes from liver hold many membrane-bound enzymes, among them those of drug oxidation.

Data set [5] is described as follows: Metabolic stability in mouse liver microsomes. The data set is classed as in vitro ADME. Summed up: as §2
Data set [6] can be described thus: Plasma protein binding (PPB), human. The settings on record: read-out: PPB (H) (converted). Type of data set: in vitro ADME.
Data set [7] in a line: Plasma protein binding (PPB), mouse. The data set is classed as in vitro ADME.
Data set [8] can be described thus: Animal PK study in mouse via i.v., p.o. and s.c. administration. The data set is classed as in vivo. Summed up: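 Plasma drug levels were measured by LC-MS/MS after acetonitrile precipitation, with blood drawn up to 24 h post-dose (from 0.083 h i.v./s.c., 0.25 h oral) in mice or rats. Animals received one dose by gavage in DMSO/methylcellulose, or by tail-vein or subcutaneous injection in DMSO/HP-β-cyclodextrin.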

The nature of data set [9]: Metabolic stability in dog liver microsomes. The data set is classed as in vitro ADME. On the procedure:
(§3) Metabolic Stability Study
(§4) The metabolic stability of compounds in human, dog, rat and mouse liver microsomes was performed according the experimental conditions reported below:
(§5) • a) Prepare the following 5 stock solutions: • 1. Test compound stock solutions: dilute 10 mM solution of dextromethorphan (Dtr) in DMSO, 10 mM solution of diphenhydramine (DPA) in DMSO, 10 mM solution of omeprazole (Ome) in DMSO, 10 mM solution of verapamil (Ver) in DMSO, and 10 mM of an inverse agonist compound in DMSO to 0.25 mM solution each with acetonitrile/water (70/30). • 2. Buffer: 100 mM potassium phosphate Buffer (PBS) at pH 7.4 • 3. Liver microsomes (20 mg/ml): Thaw in 37° C. water bath quickly • 4. 2000 μL: of NADPH regenerating system (1.3 mM). Place this system on ice before use:
(§6) • 5. […] The test compound concentration in the wells, measured by LC-MS/MS, represents the concentration at time=0. • f) To determine the test compound concentration when t≠0, pre-incubate the NADPH regenerating system and the incubation plate containing the remaining 320 μL of incubation mixture (microsomes protein and test compound) for 5 minutes at 37° C. • g) Start the incubation reaction by adding 80 μL NADPH regenerating system to each well containing the remaining 320 μL incubation mixture. • h) After 10 min., 30 min., and 90 min. of incubation at 37° C., transfer 100 μL of the incubation mixture (microsomes protein, test compound, and NADPH) into the wells of a stop plate pre-filled with 300 μL of the cold quench solution. Shake well. • i) Centrifuge the stop plate at 5000×g for 10 minutes. Collect and dilute the supernatant 3 times with distilled water. Sample and analyze the test compound concentration for all the wells by LC-MS/MS. Animal PK Studies via i.v. (intravenous), p.o. (orally) and s.c. (subcutaneous) administrations

A short description of data set [10]: Metabolic stability in rat liver microsomes. The data set is classed as in vitro ADME. The protocol: as §3, §4, §5, §6

Where “and” joins values, the source holds several entries; their conditions need not be identical. Equal entries are not always repeated. Where two headings read alike, the source gives them in different places.

T2 sequence (Q92847 whole entry): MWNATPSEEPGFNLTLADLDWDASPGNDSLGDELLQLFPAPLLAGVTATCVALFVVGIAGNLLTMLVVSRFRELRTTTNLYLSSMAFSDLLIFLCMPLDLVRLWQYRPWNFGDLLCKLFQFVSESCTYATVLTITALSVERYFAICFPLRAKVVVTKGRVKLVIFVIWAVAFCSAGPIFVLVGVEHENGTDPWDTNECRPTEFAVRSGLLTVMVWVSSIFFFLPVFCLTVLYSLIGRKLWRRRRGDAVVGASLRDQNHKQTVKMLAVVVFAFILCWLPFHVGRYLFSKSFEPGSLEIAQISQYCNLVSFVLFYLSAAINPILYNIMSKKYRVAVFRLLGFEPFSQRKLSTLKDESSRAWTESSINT
T1 sequence (Q92847 whole entry): as above

As for `CC(NC(=O)Nc1ccc(S(=O)(=O)Cc2ccc3c(c2)CNC3)cc1)c1ccccc1Cl.Cl` (stereo not shown) [H1261, 1-(1-(2-chlorophenyl)ethyl)-3-(4-((isoindolin-5-ylmethyl)sulfonyl)phenyl)urea], the EC50 is 2.2 nM in data set [1] and over 30000 nM in [2]. Besides, the IC50 in [3] amounted to 1.57 nM. Besides, the “Metabolic Stability Study H = human” value in data set [4] stood at 48.8 µL/min/mg. The “Metabolic Stability Study M = mouse” value in data set [5] is 23 µL/min/mg. In addition, the fraction unbound was 0.045 in data set [6] and 0.019 in [7].
In the case of `C[C@H](NC(=O)Nc1ccc2c(c1)CC(c1ccc3c(c1)CNC3)S2(=O)=O)c1ccccc1` (stereo partly drawn) [H1264, 1-(2-(isoindolin-5-yl)-1,1-dioxido-2,3-dihydrobenzo[b]thiophen-5-yl)-3-((S)-1-phenylethyl)urea], the IC50 in [3] is 4.4 nM. Moreover, the “Metabolic Stability Study H = human” value in [4] is given as “H < 10 M < 10 R = not reported D = not reported μL/min/mg”. Moreover, the “Metabolic Stability Study M = mouse” value in [5] is given as “H < 10 M < 10 R = not reported D = not reported μL/min/mg”. In [8], the “PK F” value turned out to be 0.36%. Besides, the “PK Vd p.o.” value in data set [8] (p.o.) was found to be 627.9 L/kg. In addition, the Vd in data set [8] (plasma, iv, 5 mg/kg) came to 4.83 L/kg. The clearance in data set [8] (plasma, iv, 5 mg/kg, i.v., read-out: PK CL i.v.) was found to be 48.2 mL/min/kg. The half-life was 69.6 min in data set [8] (plasma, iv, 5 mg/kg, i.v., read-out: PK t1/2 i.v.) and 38.4 min in [8] (plasma, po, 10 mg/kg, p.o., read-out: PK t1/2 p.o.). The fraction unbound in [6] was 0.221; in data set [7] it was 0.185.
As for `COc1cc(S(=O)(=O)Cc2ccc3c(c2)CNC3)ccc1NC(=O)NC(C)c1ccccc1.Cl` (stereo not shown) [H1383, 1-(4-((isoindolin-5-ylmethyl)sulfonyl)-2-methoxyphenyl)-3-(1-phenylethyl)urea], the EC50 in [1] was 2.01 nM; in [2], over 30000 nM. For the same compound, the half-maximal inhibitory concentration (IC50) in data set [3] worked out at 11.9 nM. Besides, the “Metabolic Stability Study H = human” value in [4] amounted to 21 µL/min/mg. Moreover, in data set [9], the “Metabolic Stability Study D = dog” value was 27.8 µL/min/mg. Besides, the “Metabolic Stability Study R = rat” value in data set [10] was 48.2 µL/min/mg. Also, the “Metabolic Stability Study M = mouse” value in [5] is 91.9 µL/min/mg.
Consider `COc1cc(S(=O)(=O)Cc2ccc3c(c2)CNC3)ccc1NC(=O)NC(C)c1cccc2ccccc12.O=C(O)C(F)(F)F` (stereo not shown) [H1419, 1-(4-((isoindolin-5-ylmethyl)sulfonyl)-2-methoxyphenyl)-3-(1-(naphthalen-1-yl)ethyl)urea], for which the EC50 in data set [1] was 0.5 nM; in data set [2], over 30000 nM. Further, the IC50 in [3] was 4.4 nM. Moreover, the “Metabolic Stability Study H = human” value in data set [4] worked out at 33.1 µL/min/mg. For the same compound, the “Metabolic Stability Study M = mouse” value in data set [5] is 45.1 µL/min/mg. Besides, the fraction unbound in data set [6] is 0.0041; in data set [7], 0.0031.
Turning to `COc1cc(S(=O)(=O)Cc2ccc3c(c2)CNC3)ccc1NC(=O)NC(C)c1ccccc1F.O=C(O)C(F)(F)F` (stereo not shown) [H1420, 1-(1-(2-fluorophenyl)ethyl)-3-(4-((isoindolin-5-ylmethyl)sulfonyl)-2-methoxyphenyl)urea], the figures for the EC50 in data set [1] and in data set [2] were 1 nM and over 30000 nM, respectively. In data set [3], the IC50 was 22 nM. The “Metabolic Stability Study H = human” value in data set [4] came out at 17.4 µL/min/mg. The “Metabolic Stability Study M = mouse” value in data set [5] was 50.6 µL/min/mg. For the same compound, the fraction unbound was 0.028 in data set [6] and 0.0461 in [7].
For the compound `COc1cc(S(=O)(=O)Cc2ccc3c(c2)CC(C)NC3)ccc1NC(=O)NC(C)c1ccccc1` (stereo not shown) [H1441, 1-(2-methoxy-4-(((3-methyl-1,2,3,4-tetrahydroisoquinolin-6-yl)methyl)sulfonyl)phenyl)-3-(1-phenylethyl)urea], the EC50 was 4.3 nM and 3.3 nM in [1]; over 30000 nM in data set [2]. The IC50 in data set [3] is 14.9 nM and 40.4 nM. For the same compound, the “Metabolic Stability Study H = human” value in [4] is 17.3 µL/min/mg. The “Metabolic Stability Study M = mouse” value in data set [5] stood at 16.4 µL/min/mg. Further, the fraction unbound in data set [6] was 0.0245; in [7] it was 0.045.
